26 molecules from patent publication US20220144815A1, “1,3,4-OXADIAZOLES AND THEIR DERIVATIVES AS NEW ANTIFUNGAL AGENTS” (Bayer Aktiengesellschaft, priority 2018, published 2022) can be followed below.

A short description of the data set: Log P by HPLC on reversed phase columns, method [a] (EEC directive 79/831 Annex V.A8). Conditions: reversed phase HPLC column; method [a], HPLC on reversed phase columns; read-out: logP. The format is physicochemical. Put shortly:
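Log P calibrated with C3–C16 straight-chain alkan-2-ones of known Log P, interpolating linearly between retention times. Method per EEC 79/831 Annex V.A8: reversed-phase LC-UV in the acidic range, water/0.1% formic acid and acetonitrile gradient from 10% to 95% acetonitrile.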
For `CC(C)(Nc1ncc(-c2nnc(C(F)F)o2)cn1)c1ccc(Cl)cc1` [I.231, N-[2-(4-chlorophenyl)propan-2-yl]-5-[5-(difluoromethyl)-1,3,4-oxadiazol-2-yl]pyrimidin-2-amine], the chromatographic logP is 3.55.

Turning to `Fc1ccc(C(F)(F)CNc2ncc(-c3nnc(C(F)F)o3)cn2)cc1` [I.234, N-[2,2-difluoro-2-(4-fluorophenyl)ethyl]-5-[5-(difluoromethyl)-1,3,4-oxadiazol-2-yl]pyrimidin-2-amine], the chromatographic logP was determined as 2.9.

As to `COc1cccc(C2(Nc3ncc(-c4nnc(C(F)F)o4)cn3)CC2)c1F` [I.236, 5-[5-(difluoromethyl)-1,3,4-oxadiazol-2-yl]-N-[1-(2-fluoro-3-methoxyphenyl)cyclopropyl]pyrimidin-2-amine], the chromatographic logP stood at 2.81.

On to `FC(F)c1nnc(-c2cnc(NC3(c4ccc(Cl)cc4)CCC3)nc2)o1` [I.237, N-[1-(4-chlorophenyl)cyclobutyl]-5-[5-(difluoromethyl)-1,3,4-oxadiazol-2-yl]pyrimidin-2-amine], for which the chromatographic logP stood at 3.71.

Turning to `FC(F)c1nnc(-c2cnc(NC(c3ccccc3)c3ccccc3)nc2)o1` [I.238, 5-[5-(difluoromethyl)-1,3,4-oxadiazol-2-yl]-N-(diphenylmethyl)pyrimidin-2-amine], the chromatographic logP worked out at 3.52.

As to `C#CCN(c1ncc(-c2nnc(C(F)F)o2)cn1)C1(c2ccccc2F)CC1` [I.241, 5-[5-(difluoromethyl)-1,3,4-oxadiazol-2-yl]-N-[1-(2-fluorophenyl)cyclopropyl]-N-(prop-2-yn-1-yl)pyrimidin-2-amine], the chromatographic logP was 4.09.

As for `CC(C)(C)c1ccc(C2(Nc3ncc(-c4nnc(C(F)F)o4)cn3)CC2)cc1` [I.242, N-[1-(4-tert-butylphenyl)cyclopropyl]-5-[5-(difluoromethyl)-1,3,4-oxadiazol-2-yl]pyrimidin-2-amine], the chromatographic logP is 4.05.

As for `COc1ccc(C2(Nc3ncc(-c4nnc(C(F)F)o4)cn3)CC2)cc1OC` [I.243, 5-[5-(difluoromethyl)-1,3,4-oxadiazol-2-yl]-N-[1-(3,4-dimethoxyphenyl)cyclopropyl]pyrimidin-2-amine], the chromatographic logP came to 2.39.

`Fc1ccc([C@H](Nc2ncc(-c3nnc(C(F)F)o3)cn2)C2CCCC2)cc1` [I.244, N—[(R)-cyclopentyl(4-fluorophenyl)methyl]-5-[5-(difluoromethyl)-1,3,4-oxadiazol-2-yl]pyrimidin-2-amine]: the chromatographic logP is 4.05.

Take `FC(F)Oc1cccc(C2(Nc3ncc(-c4nnc(C(F)F)o4)cn3)CC2)c1` [I.246, N-{1-[3-(difluoromethoxy)phenyl]cyclopropyl}-5-[5-(difluoromethyl)-1,3,4-oxadiazol-2-yl]pyrimidin-2-amine]: the chromatographic logP was found to be 2.91.

As for `FC(F)Oc1ccc(C2(Nc3ncc(-c4nnc(C(F)F)o4)cn3)CC2)cc1` [I.247, N-{1-[4-(difluoromethoxy)phenyl]cyclopropyl}-5-[5-(difluoromethyl)-1,3,4-oxadiazol-2-yl]pyrimidin-2-amine], the chromatographic logP came to 2.91.

In the case of `FC(F)Oc1ccccc1C1(Nc2ncc(-c3nnc(C(F)F)o3)cn2)CC1` [I.248, N-{1-[2-(difluoromethoxy)phenyl]cyclopropyl}-5-[5-(difluoromethyl)-1,3,4-oxadiazol-2-yl]pyrimidin-2-amine], the chromatographic logP amounted to 3.21.

With `FC(F)c1nnc(-c2cnc(NC3(c4cccc(C(F)(F)F)c4)CC3)nc2)o1` [I.249, 5-[5-(difluoromethyl)-1,3,4-oxadiazol-2-yl]-N-{1-[3-(trifluoromethyl)phenyl]cyclopropyl}pyrimidin-2-amine], the chromatographic logP was 3.24.

On to `FC(F)c1nnc(-c2cnc(NC3(c4ccc(C(F)(F)F)cc4)CC3)nc2)o1` [I.250, 5-[5-(difluoromethyl)-1,3,4-oxadiazol-2-yl]-N-{1-[4-(trifluoromethyl)phenyl]cyclopropyl}pyrimidin-2-amine], for which the chromatographic logP worked out at 3.25.

In the case of `FC(F)c1nnc(-c2cnc(NC3(c4cc(Cl)ccc4Cl)CC3)nc2)o1` [I.251, N-[1-(2,5-dichlorophenyl)cyclopropyl]-5-[5-(difluoromethyl)-1,3,4-oxadiazol-2-yl]pyrimidin-2-amine], the chromatographic logP came out at 3.84.

On to `FC(F)c1nnc(-c2cnc(NC3(c4ccc(Cl)c(Cl)c4)CC3)nc2)o1` [I.252, N-[1-(3,4-dichlorophenyl)cyclopropyl]-5-[5-(difluoromethyl)-1,3,4-oxadiazol-2-yl]pyrimidin-2-amine], for which the chromatographic logP stood at 3.43.

On to `FC(F)c1nnc(-c2cnc(NC3(c4cccc(Cl)c4Cl)CC3)nc2)o1` [I.253, N-[1-(2,3-dichlorophenyl)cyclopropyl]-5-[5-(difluoromethyl)-1,3,4-oxadiazol-2-yl]pyrimidin-2-amine], for which the chromatographic logP was 3.74.

Take `FC(F)c1nnc(-c2cnc(NC3(c4cc(Cl)cc(Cl)c4)CC3)nc2)o1` [I.254, N-[1-(3,5-dichlorophenyl)cyclopropyl]-5-[5-(difluoromethyl)-1,3,4-oxadiazol-2-yl]pyrimidin-2-amine]: the chromatographic logP was 3.63.

Turning to `FC(F)c1nnc(-c2cnc(NC3(c4ccc(Cl)cc4Cl)CC3)nc2)o1` [I.255, N-[1-(2,4-dichlorophenyl)cyclopropyl]-5-[5-(difluoromethyl)-1,3,4-oxadiazol-2-yl]pyrimidin-2-amine], the chromatographic logP was found to be 4.05.

Regarding `CC(C)(Nc1ncc(-c2nnc(C(F)F)o2)cn1)c1cccc(C(F)(F)F)c1` [I.256, 5-[5-(difluoromethyl)-1,3,4-oxadiazol-2-yl]-N-{2-[3-(trifluoromethyl)phenyl]propan-2-yl}pyrimidin-2-amine], the chromatographic logP amounted to 3.63.

Consider `FC(F)c1nnc(-c2cnc(NC3(c4cccc(Cl)c4)CCCCC3)nc2)o1` [I.258, N-[1-(3-chlorophenyl)cyclohexyl]-5-[5-(difluoromethyl)-1,3,4-oxadiazol-2-yl]pyrimidin-2-amine], for which the chromatographic logP was determined as 4.35.

For the molecule `O=[N+]([O-])c1cc(C2(Nc3ncc(-c4nnc(C(F)F)o4)cn3)CC2)ccc1Cl` [I.259, N-[1-(4-chloro-3-nitrophenyl)cyclopropyl]-5-[5-(difluoromethyl)-1,3,4-oxadiazol-2-yl]pyrimidin-2-amine], the chromatographic logP was 2.96.

Regarding `Fc1ccccc1C1(N(CC(F)F)c2ncc(-c3nnc(C(F)F)o3)cn2)CC1` [I.261, N-(2,2-difluoroethyl)-5-[5-(difluoromethyl)-1,3,4-oxadiazol-2-yl]-N-[1-(2-fluorophenyl)cyclopropyl]pyrimidin-2-amine], the chromatographic logP was found to be 4.4.

In the case of `FC(F)c1nnc(-c2cnc(NC3(c4cccc(OC(F)(F)F)c4)CC3)nc2)o1` [I.262, 5-[5-(difluoromethyl)-1,3,4-oxadiazol-2-yl]-N-{1-[3-(trifluoromethoxy)phenyl]cyclopropyl}pyrimidin-2-amine], the chromatographic logP was 3.37.

Turning to `Fc1cc(C(F)(F)F)ccc1C1(Nc2ncc(-c3nnc(C(F)F)o3)cn2)CC1` [I.263, 5-[5-(difluoromethyl)-1,3,4-oxadiazol-2-yl]-N-{1-[2-fluoro-4-(trifluoromethyl)phenyl]cyclopropyl}pyrimidin-2-amine], the chromatographic logP stood at 3.59.

As to `FC(F)c1nnc(-c2cnc(NC3(c4cccc(Oc5ccccc5)c4)CC3)nc2)o1` [I.265, 5-[5-(difluoromethyl)-1,3,4-oxadiazol-2-yl]-N-[1-(3-phenoxyphenyl)cyclopropyl]pyrimidin-2-amine], the chromatographic logP was 3.62.
